Experiments:
Cdk5/p25 = Cdk5/p25 (Homo sapiens, UniProt Q00535); assay: Cdk5 kinase assay (ADP-Glo) with Cdk5/p25 complex; type: biochemical; conditions: 10 μM ATP, histone substrate, inhibitor 0-100 nM
Experimental: (§1) The test tube Cdk5 Kinase assay was performed utilizing Cdk5/p35 and Cdk5/p25 complexes as kinases, following the modified procedure outlined in a previous study,[52] using a Promega ADP-GloTM Kinase Assay kit. The reaction was carried out with 10 μM ATP and 2 μg of histone as the substrate for Cdk5 complexes. To study the inhibition patterns, 19 Cdk5 inhibitors (BLINK1-19) identified through molecular docking were added to the Cdk5 kinase reaction in increasing concentrations ranging from 0 to 100 nM. The IC50 (half-maximal inhibitory concentration) values of all the inhibitors were calculated based on Log(inhibitor) vs. normalized response using GraphPad software.

Cdk5/p35 = Cdk5/p35 (Homo sapiens, UniProt Q00535); assay: Cdk5 kinase assay (ADP-Glo) with Cdk5/p35 complex; type: biochemical; conditions: 10 μM ATP, histone substrate, inhibitor 0-100 nM
Chain of Cdk5/p35 (Q00535 whole entry, species assumed): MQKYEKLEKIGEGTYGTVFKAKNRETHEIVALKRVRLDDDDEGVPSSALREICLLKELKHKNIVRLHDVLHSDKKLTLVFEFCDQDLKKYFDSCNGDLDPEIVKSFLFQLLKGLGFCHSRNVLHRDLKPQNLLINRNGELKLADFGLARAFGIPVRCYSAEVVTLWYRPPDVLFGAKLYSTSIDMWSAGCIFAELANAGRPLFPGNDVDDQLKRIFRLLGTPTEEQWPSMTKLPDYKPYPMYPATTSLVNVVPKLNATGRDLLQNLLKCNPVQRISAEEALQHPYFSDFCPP
Chain of Cdk5/p35 (Q15078 whole entry partner, species assumed): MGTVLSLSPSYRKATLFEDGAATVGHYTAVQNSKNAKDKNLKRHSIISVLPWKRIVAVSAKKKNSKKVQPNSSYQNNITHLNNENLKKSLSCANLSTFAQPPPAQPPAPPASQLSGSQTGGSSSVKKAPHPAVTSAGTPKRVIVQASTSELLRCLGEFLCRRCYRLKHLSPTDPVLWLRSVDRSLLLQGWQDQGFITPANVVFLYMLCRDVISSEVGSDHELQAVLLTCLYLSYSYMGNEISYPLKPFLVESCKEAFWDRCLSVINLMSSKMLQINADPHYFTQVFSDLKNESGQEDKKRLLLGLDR
Experimental: as §1

Chain of Cdk5/p25 (Q00535 whole entry, species assumed): as the sequence (Q00535 whole entry, species assumed) above
Chain of Cdk5/p25 (Q15078 99-307 partner limits assumed, species assumed): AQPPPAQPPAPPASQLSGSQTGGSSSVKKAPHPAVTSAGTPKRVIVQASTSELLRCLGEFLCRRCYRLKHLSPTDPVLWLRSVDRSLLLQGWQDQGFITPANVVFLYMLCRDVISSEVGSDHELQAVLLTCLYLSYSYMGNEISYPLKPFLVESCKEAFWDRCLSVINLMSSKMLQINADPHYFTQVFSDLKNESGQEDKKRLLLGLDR

Cc1cc(C)c2nc(-c3cccnc3)cc(C(=O)Nc3sc(Cc4ccccc4)cc3C(N)=O)c2c1 [BLINK14]
IC50 (Cdk5/p25): 23.1 nM | IC50 (Cdk5/p35): 24.8 nM

CC1CCc2c(sc3nc(CCl)ncc23)C1 (stereo not drawn) [BLINK19]
IC50 (Cdk5/p25): 48.1 nM | IC50 (Cdk5/p35): 55.3 nM

CC1(C)Cc2c(sc3nc(SCC(=O)O)[nH]c(=O)c23)CO1 [BLINK1]
IC50 (Cdk5/p25): 18.4 nM | IC50 (Cdk5/p35): 19.2 nM

O=C(Nc1ccc(Cl)cc1C(=O)NCCO)c1ccc(Cl)cc1Cl [BLINK4]
IC50 (Cdk5/p25): 16.9 nM | IC50 (Cdk5/p35): 27.7 nM

Cc1ccc(-c2csc(Cc3nc(-c4cc5ccccc5oc4=O)cs3)n2)cc1 [BLINK3]
IC50 (Cdk5/p25): 71.3 nM | IC50 (Cdk5/p35): 68.7 nM

CCOC(=O)c1cnc(Nc2nc3ccccc3o2)nc1CSc1nnc(C)s1 [BLINK9]
IC50 (Cdk5/p25): 35.1 nM | IC50 (Cdk5/p35): 54.1 nM

O=C1c2cccc3cccc(c23)C(=O)N1CCCSc1n[nH]c(-c2ccc(F)cc2)n1 [BLINK18]
IC50 (Cdk5/p25): 32.1 nM | IC50 (Cdk5/p35): 57.2 nM

Cc1nnc(SCC(=O)Nc2nsc(-c3ccc(Cl)cc3)n2)s1 [BLINK7]
IC50 (Cdk5/p25): 97 nM | IC50 (Cdk5/p35): 85.2 nM

Cc1ccc2nc(Nc3nc(O)cc(CSc4nnc(C)s4)n3)nc(C)c2c1 [BLINK8]
IC50 (Cdk5/p25): 108 nM | IC50 (Cdk5/p35): 50.6 nM

CN(C)C(=O)CSc1nc2sc3c(c2c(=O)[nH]1)CCCC3 [BLINK5]
IC50 (Cdk5/p25): 17.5 nM | IC50 (Cdk5/p35): 16.9 nM

COc1ccc(C(=O)CSc2nc3sc(C)c(C)c3c(=O)[nH]2)cc1C [BLINK2]
IC50 (Cdk5/p25): 33.5 nM | IC50 (Cdk5/p35): 92.6 nM

OCCCNc1nc(-c2ccccc2Cl)c2cc(Br)ccc2n1 [BLINK6]
IC50 (Cdk5/p25): 141 nM | IC50 (Cdk5/p35): 183 nM

Clc1ccc2nc(SCc3csc(Nc4ccccc4)n3)oc2c1 [BLINK16]
IC50 (Cdk5/p25): 21.2 nM | IC50 (Cdk5/p35): 28 nM

O=C(CSc1nnc(-c2ccccc2Cl)[nH]1)c1ccc(O)c(O)c1 [BLINK13]
IC50 (Cdk5/p25): 41.5 nM | IC50 (Cdk5/p35): 20.1 nM

O=C(CSc1n[nH]c(-c2ccc(Cl)cc2)n1)N[C@H]1C[C@@H]2CC[C@H]1C2 [BLINK17]
IC50 (Cdk5/p25): 43.2 nM | IC50 (Cdk5/p35): 63.2 nM
